Each structure is given as a SMILES string. Counter-ions that a name gives are not always drawn. Like-named read-outs stand apart in the source and are kept apart here. Some results are limits rather than exact numbers.

In data set [1] the target is T1, human activated blood coagulation factor X (Homo sapiens, UniProt P00742).
T1 construct: purchased Calbiochem Corporation
In words: Measurement of inhibitory activity for activated blood coagulation factor X (S-2222 chromogenic substrate). Format: biochemical. As to the method:
Five µL of dimethylsulfoxide solution of test compound, 375 µL of tris-hydrochloric acid buffer (pH 8.4) and 100 µL of 1 mM S-2222 (Daiichi Pure Chemicals) aqueous solution were mixed. Then 20 µL of 0.6 U/mL human activated blood coagulation factor X (Calbiochem Corporation) in gelatin-glycine buffer was added and the mixture was incubated for 10 minutes at 37 °C. The reaction was terminated with the addition of 100 µL of 60 % acetic acid and absorbance (405 nm) was measured.
The group without test compound was defined as control and the group without human activated blood coagulation factor X was defined as blank.

The target in a further data set is T2, human thrombin (Homo sapiens, UniProt P00734).
T2 construct: human thrombin (Sigma Chemical Company); purchased Sigma Chemical Company
In words: Measurement of inhibitory activity for thrombin (S-2238 chromogenic substrate). Format: biochemical. As to the method:
Five µL of dimethylsulfoxide solution of test compound, 375 µL of tris-hydrochloric acid buffer (pH 8.4) and 100 µL of 1 mM S-2238 (Daiichi Pure Chemicals) aqueous solution were mixed. Then 20 µL of 2.0 U/mL human thrombin (Sigma Chemical Company) in gelatin-glycine buffer was added and the mixture was incubated for 10 minutes at 37 °C. The reaction was terminated with the addition of 100 µL of 60 % acetic acid and absorbance (405 nm) was measured.
The group without test compound was defined as control and the group without human thrombin was defined as blank. […]

The subject of the next data set is normal human plasma. In words: Measurement of anticoagulation effects (plasma prothrombin time). The settings on record: CT2: concentration that prolonged the clotting time (prothrombin time) of control by 2 times. Format: biochemical. As to the method: Two µL of dimethylsulfoxide solution of test compound which was put in the process tube was incubated at 37 °C, and 50 µL of normal human plasma (George King Bio-Medical Inc.) was mixed. One minute later, 100 µL of plasma prothrombin time reagent (Neoplastin Plus® , Boehringer Mannheim) was added into the mixture. Prothrombin time was measured with ST4 (Boehringer Mannheim).
The group without test compound was defined as control. The concentration of test compound that prolonged the clotting time of control by 2 times (CT2) was obtained and this value was used as the index of anticoagulation activity.

Another data set deals with Male Wistar rats. In words: Acute toxicity test. The format is in vivo. The settings on record: 30 mg/kg, through tail vein (intravenous), groups of 5 rats, survival judged for 24 hours. As to the method:
Male Wistar rats aged 7 weeks (SLC) were divided into several groups consisting of 5 rats. Test compound was dissolved at the concentration that became the administration volume of
2.5 mL/kg. The solution was administered through tail vein at an infusion rate of 1 mL/minute. Observations were performed at constant intervals, and survival rate was judged for 24 hours.

T1 sequence (P00742 235-488 limits assumed): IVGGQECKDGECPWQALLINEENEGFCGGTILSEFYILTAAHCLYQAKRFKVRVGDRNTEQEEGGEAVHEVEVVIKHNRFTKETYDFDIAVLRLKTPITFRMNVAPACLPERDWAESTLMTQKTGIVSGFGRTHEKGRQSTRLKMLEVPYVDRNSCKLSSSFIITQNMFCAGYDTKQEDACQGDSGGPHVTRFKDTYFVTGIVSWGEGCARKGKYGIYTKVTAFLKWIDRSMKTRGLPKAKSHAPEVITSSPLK
T1 sequence (P00742 41-179 partner limits assumed): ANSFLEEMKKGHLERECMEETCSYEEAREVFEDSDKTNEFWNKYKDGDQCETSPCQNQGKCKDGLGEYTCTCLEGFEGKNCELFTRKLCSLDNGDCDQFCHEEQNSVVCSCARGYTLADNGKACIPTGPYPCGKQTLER

For the compound `CC(=N)N1CCC(Oc2ccc(CCNS(=O)(=O)c3cc(C(=N)N)ccc3O)cc2)CC1` [Compound 10, 5-Amidino-2-hvdroxv-N-[2-[4-[1-(1-iminoethyl)piperidin-4-yloxy]phenyl]ethyl]benzenesulfonamide dihydrochloride], the values for the IC50 (in data set [1]; against human thrombin) were 110 nM and over 100000 nM, respectively. The same compound displayed an Anticoagulation effect in the data set with normal human plasma of 0.22 µM.
For the compound `CC(=N)N1CCC(c2ccc(CCNS(=O)(=O)c3cc(C(=N)N)ccc3O)cc2)CC1` [Compound 8, 5-Amidino-2-hydroxy-N-[2-[4-[1-(1-iminoethyl)piperidin-4-yl]phenyl]ethyl]benzenesulfonamide dihydorchloride], the IC50 in data set [1] is 87 nM; on human thrombin, over 100000 nM. Further, in the data set on normal human plasma, the Anticoagulation effect came out at 0.21 µM. Also, the Death cases in the data set on Male Wistar rats is reported as 0/5; with Male Wistar rats (listed as 5-amidino-2-hydroxy-N-[2-[4-[1-(1-iminoethyl)piperidin-4-yl]phenyl]ethyl]benzene) it was “no death was observed”.
Consider `CC(=N)N1CC[C@H](Oc2ccc(CCNS(=O)(=O)c3cc(C(=N)N)ccc3O)cc2)C1` [Compound 9, (S)-5-Amidino-2-hydroxy-N-[2-[4-[1-(1-iminoethyl)pyrrolidin-3-yloxylphenyl]ethyl]benzenesulfonamidedihydrochloride], for which the IC50 in data set [1] was 88 nM; against human thrombin it was over 100000 nM. The compound further gave an Anticoagulation effect in the data set with normal human plasma of 0.18 µM.
`CC(C)c1ccc(CCNS(=O)(=O)c2cc(C(=N)N)ccc2O)cc1` [Compound 2, 5-Amidino-N-[2-(4-isopropylphenyl)ethyl]-2-hydroxybenzene-sulfonamide hydrochloride]: the IC50 in data set [1] (IC50, pH 8.4, 10 minutes at 37 °C, absorbance 405 nm, read-out: Inhibitory activity for activated blood coagulation factor X) stood at 64 nM; at human thrombin (IC50, pH 8.4, 10 minutes at 37 °C, absorbance 405 nm, read-out: Inhibitory activity for thrombin), 101000 nM.

For the origin of these results see EP1174421A1, “3-AMIDINOBENZENESULFONAMIDE DERIVATIVES, MEDICINAL COMPOSITIONS CONTAINING THE SAME AND INT[…] THE PRODUCTION THEREOF” (Kissei Pharmaceutical Co., Ltd., priority 1999, dated 2000).
